Results taken from patent US12415794B2 (Edgewise Therapeutics, Inc., priority 2018, dated 2025).

Tests used:
[1] = target: skeletal myofibrils (myosin ATPase); test: Skeletal Myofibril ATPase Assay; type: biochemical
Outline: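 Skeletal myofibril ATPase measured by PK-LDH coupled NADH depletion, absorbance 340 nm read every 1.5-2 min over 45 min. Max−min rate normalized to 1% DMSO vehicle as 100%; IC50 from four-parameter logistic fit with bottom ≥0. Cardiac myofibrils used as counter-screen.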

[2] = target: T1, cardiac myofibrils (myosin ATPase); test: Cardiac Myofibril ATPase Assay (counter screen); type: biochemical; details: myofibrils 1.0 mg/mL, KCl omitted
T1 construct: frozen myofibril pellets obtained from cardiac tissue; from tissue
Outline: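 Frozen cardiac myofibrils at 1.0 mg/mL final, KCl omitted, in a PK-LDH coupled ATPase assay; ADP production tracked as NADH loss by absorbance at 340 nm. Inhibition taken as reduced rate relative to vehicle controls, with IC50 derived.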

T1 sequence (P12883 whole entry): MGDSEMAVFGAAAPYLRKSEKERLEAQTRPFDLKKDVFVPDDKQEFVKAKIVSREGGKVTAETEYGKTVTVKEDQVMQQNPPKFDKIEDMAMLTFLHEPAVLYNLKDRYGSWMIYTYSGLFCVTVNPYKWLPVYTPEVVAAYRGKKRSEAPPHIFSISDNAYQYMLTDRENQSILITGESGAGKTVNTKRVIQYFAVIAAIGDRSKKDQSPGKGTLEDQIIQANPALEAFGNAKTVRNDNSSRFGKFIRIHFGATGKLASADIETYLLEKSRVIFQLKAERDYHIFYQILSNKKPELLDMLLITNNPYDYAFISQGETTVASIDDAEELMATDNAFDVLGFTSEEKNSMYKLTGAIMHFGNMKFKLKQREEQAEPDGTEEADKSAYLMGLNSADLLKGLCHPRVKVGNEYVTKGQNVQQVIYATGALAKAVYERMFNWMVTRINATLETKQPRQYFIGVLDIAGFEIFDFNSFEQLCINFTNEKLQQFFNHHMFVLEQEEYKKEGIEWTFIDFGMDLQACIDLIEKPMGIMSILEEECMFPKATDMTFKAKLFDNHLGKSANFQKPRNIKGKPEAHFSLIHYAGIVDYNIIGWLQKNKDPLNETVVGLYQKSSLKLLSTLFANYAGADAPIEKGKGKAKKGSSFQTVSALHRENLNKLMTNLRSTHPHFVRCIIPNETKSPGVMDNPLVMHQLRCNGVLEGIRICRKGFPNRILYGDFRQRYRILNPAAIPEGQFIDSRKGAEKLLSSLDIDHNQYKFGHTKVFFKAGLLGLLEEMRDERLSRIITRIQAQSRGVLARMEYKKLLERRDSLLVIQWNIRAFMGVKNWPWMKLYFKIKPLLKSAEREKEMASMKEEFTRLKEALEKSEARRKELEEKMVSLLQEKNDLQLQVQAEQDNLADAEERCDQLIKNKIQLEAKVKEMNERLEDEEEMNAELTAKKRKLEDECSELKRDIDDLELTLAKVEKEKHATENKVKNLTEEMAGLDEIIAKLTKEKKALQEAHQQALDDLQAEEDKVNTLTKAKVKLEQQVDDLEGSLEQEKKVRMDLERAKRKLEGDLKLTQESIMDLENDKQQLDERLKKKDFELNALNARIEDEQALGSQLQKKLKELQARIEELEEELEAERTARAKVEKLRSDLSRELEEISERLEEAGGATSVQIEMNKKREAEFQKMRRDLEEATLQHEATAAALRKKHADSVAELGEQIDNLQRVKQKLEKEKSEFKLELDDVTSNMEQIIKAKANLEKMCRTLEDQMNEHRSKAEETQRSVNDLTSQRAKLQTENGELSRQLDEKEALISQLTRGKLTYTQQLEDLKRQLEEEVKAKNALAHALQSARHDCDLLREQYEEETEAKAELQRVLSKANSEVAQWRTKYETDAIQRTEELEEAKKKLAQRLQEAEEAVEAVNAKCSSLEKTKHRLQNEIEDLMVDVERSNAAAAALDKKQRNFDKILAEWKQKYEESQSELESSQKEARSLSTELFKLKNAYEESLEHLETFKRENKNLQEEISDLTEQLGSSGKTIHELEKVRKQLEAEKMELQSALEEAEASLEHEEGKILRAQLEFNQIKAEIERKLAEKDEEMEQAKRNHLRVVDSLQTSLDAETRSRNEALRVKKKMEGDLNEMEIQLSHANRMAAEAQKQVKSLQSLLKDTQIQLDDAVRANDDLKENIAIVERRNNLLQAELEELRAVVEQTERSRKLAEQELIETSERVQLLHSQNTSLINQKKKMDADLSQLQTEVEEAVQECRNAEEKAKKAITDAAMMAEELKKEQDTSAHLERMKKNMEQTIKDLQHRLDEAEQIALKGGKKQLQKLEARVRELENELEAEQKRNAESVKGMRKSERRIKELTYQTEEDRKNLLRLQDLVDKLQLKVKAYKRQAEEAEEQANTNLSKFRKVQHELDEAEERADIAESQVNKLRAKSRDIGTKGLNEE
T1 sequence (P08590 whole entry partner): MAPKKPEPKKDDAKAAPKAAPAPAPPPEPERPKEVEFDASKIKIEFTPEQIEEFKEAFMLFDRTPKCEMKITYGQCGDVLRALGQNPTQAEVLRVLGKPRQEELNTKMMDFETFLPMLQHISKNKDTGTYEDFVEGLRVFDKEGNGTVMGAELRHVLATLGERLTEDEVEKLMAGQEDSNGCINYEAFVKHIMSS
T1 sequence (P10916 whole entry partner): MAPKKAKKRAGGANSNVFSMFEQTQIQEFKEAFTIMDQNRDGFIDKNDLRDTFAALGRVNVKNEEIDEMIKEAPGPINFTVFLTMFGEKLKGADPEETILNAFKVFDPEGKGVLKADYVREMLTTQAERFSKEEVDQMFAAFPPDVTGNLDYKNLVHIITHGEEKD

Row | IC50 ([1]; Table 4A) | IC50 ([2]; Table 5A) | IC50 ([1]; Table 4B) | IC50 ([2]; Table 5B) | Compound
1 | < 10 µM | > 100 µM |  |  | CCNC(=O)Cn1nc(-c2ccc(SC)nc2)ccc1=O [Compound I-63, N-ethyl-2-(3-(6-(methylthio)pyridin-3-yl)-6-oxopyridazin-1(6H)-yl)acetamide]
2 | < 10 µM | 10 to 100 µM |  |  | CCNC(=O)Cn1nc(-c2ccc(N(C)C34CC(C3)C4)nc2)ccc1=O [Compound I-64, 2-(3-(6-(bicyclo[1.1.1]pentan-1-yl(methyl)amino)pyridin-3-yl)-6-oxopyridazin-1(6H)-yl)-N-ethylacetamide]
3 | > 100 µM | > 100 µM |  |  | CCNC(=O)Cn1nc(-c2ccc(OC(F)F)[n+]([O-])c2)ccc1=O [Compound I-65, 2-(difluoromethoxy)-5-(1-(2-(ethylamino)-2-oxoethyl)-6-oxo-1,6-dihydropyridazin-3-yl)pyridine 1-oxide]
4 | < 10 µM | > 100 µM |  |  | CC[C@@H](C)NC(=O)Cn1nc(-c2ccc(OC(F)F)nc2)ccc1=O [Compound I-66, (R)-N-(sec-butyl)-2-(3-(6-(difluoromethoxy)pyridin-3-yl)-6-oxopyridazin-1(6H)-yl)acetamide]
5 | < 10 µM | > 100 µM |  |  | O=C(Cn1nc(-c2ccc(OC(F)F)nc2)ccc1=O)NC1(c2ccccc2)CCC1 [Compound I-68, 2-(3-(6-(difluoromethoxy)pyridin-3-yl)-6-oxopyridazin-1(6H)-yl)-N-(1-phenylcyclobutyl)acetamide]
6 | < 10 µM | > 100 µM |  |  | O=C(Cn1nc(-c2ccc(OC(F)F)nc2)ccc1=O)NCc1ccccc1Cl [Compound I-69, N-(2-chlorobenzyl)-2-(3-(6-(difluoromethoxy)pyridin-3-yl)-6-oxopyridazin-1(6H)-yl)acetamide]
7 | < 10 µM | > 100 µM |  |  | O=C(Cn1nc(-c2ccc(OC(F)F)nc2)ccc1=O)NCc1ccc(Cl)cc1 [Compound I-70, N-(4-chlorobenzyl)-2-(3-(6-(difluoromethoxy)pyridin-3-yl)-6-oxopyridazin-1(6H)-yl)acetamide]
8 | < 10 µM | > 100 µM |  |  | O=C(Cn1nc(-c2cnc(OCC(F)(F)F)nc2)ccc1=O)NC1CCC1 [Compound I-71, N-cyclobutyl-2-(6-oxo-3-(2-(2,2,2-trifluoroethoxy)pyrimidin-5-yl)pyridazin-1(6H)-yl)acetamide]
9 | < 10 µM | > 100 µM |  |  | O=C(Cn1nc(-c2cnc(OCCOC(F)(F)F)nc2)ccc1=O)NC1CCC1 [Compound I-72, N-cyclobutyl-2-(6-oxo-3-(2-(2-(trifluoromethoxy)ethoxy)pyrimidin-5-yl)pyridazin-1(6H)-yl)acetamide]
10 | < 10 µM | > 100 µM |  |  | CCCOc1ncc(-c2ccc(=O)n(CC(=O)NC3CCC3)n2)cn1 [Compound I-73, N-cyclobutyl-2-(6-oxo-3-(2-propoxypyrimidin-5-yl)pyridazin-1(6H)-yl)acetamide]
11 | 10 to 100 µM | > 100 µM |  |  | CCNC(=O)Cn1nc(-c2ccc(NC3CC(F)(F)C3)nc2)ccc1=O [Compound I-74, 2-(3-(6-((3,3-difluorocyclobutyl)amino)pyridin-3-yl)-6-oxopyridazin-1(6H)-yl)-N-ethylacetamide]
12 | 10 to 100 µM | > 100 µM |  |  | O=C(Cn1nc(-c2ccc(OC(F)F)nc2)ccc1=O)NCc1cccc(Cl)c1 [Compound I-76, N-(3-chlorobenzyl)-2-(3-(6-(difluoromethoxy)pyridin-3-yl)-6-oxopyridazin-1(6H)-yl)acetamide]
13 | 10 to 100 µM | > 100 µM |  |  | CCNC(=O)Cn1nc(-c2cnc(OCC3CC(F)(F)C3)nc2)ccc1=O [Compound I-77, 2-(3-(2-((3,3-difluorocyclobutyl)methoxy)pyrimidin-5-yl)-6-oxopyridazin-1(6H)-yl)-N-ethylacetamide]
14 | 10 to 100 µM | > 100 µM |  |  | CCNC(=O)Cn1nc(-c2cnc(Oc3ccc(Cl)cc3)nc2)ccc1=O [Compound I-78, 2-(3-(2-(4-chlorophenoxy)pyrimidin-5-yl)-6-oxopyridazin-1(6H)-yl)-N-ethylacetamide]
15 |  |  | < 10 µM | 10 to 100 µM | CCNC(=O)Cn1nc(-c2ccc(OC(C)(F)F)cc2)ccc1=O [II-1, 2-(3-(4-(1,1-difluoroethoxy)phenyl)-6-oxopyridazin-1(6H)-yl)-N-ethylacetamide]
16 |  |  | < 10 µM | > 100 µM | CCNC(=O)Cn1nc(-c2ccc(NC(C)=O)cc2)ccc1=O [II-2, 2-(3-(4-acetamidophenyl)-6-oxopyridazin-1(6H)-yl)-N-ethylacetamide]
17 |  |  | < 10 µM | > 100 µM | O=C(Cn1nc(-c2ccc(OC(F)F)cc2)ccc1=O)NCc1ccccc1Cl [II-3, N-(2-chlorobenzyl)-2-(3-(4-(difluoromethoxy)phenyl)-6-oxopyridazin-1(6H)-yl)acetamide]
18 |  |  | < 10 µM | > 100 µM | CC(C)NC(=O)Cn1nc(-c2ccc(OC(F)(F)F)cc2)ccc1=O [II-4]

Row | IC50 ([1]; Table 4A) | IC50 ([2]; Table 5A) | IC50 ([1]; Table 4B) | IC50 ([2]; Table 5B) | Compound
19 |  |  | < 10 µM | > 100 µM | CCNC(=O)Cn1nc(-c2ccc(OC(F)(F)F)cc2)ccc1=O [II-5, N-ethyl-2-(6-oxo-3-(4-(trifluoromethoxy)phenyl)pyridazin-1(6H)-yl)acetamide]
20 |  |  | < 10 µM | > 100 µM | CCNC(=O)Cn1nc(-c2ccc(OCC(F)(F)F)cc2)ccc1=O [II-6, N-ethyl-2-(6-oxo-3-(4-(2,2,2-trifluoroethoxy)phenyl)pyridazin-1(6H)-yl)acetamide]
21 |  |  | < 10 µM | 10 to 100 µM | CCNC(=O)Cn1nc(-c2ccc(OCC(F)F)cc2)ccc1=O [II-7, 2-(3-(4-(2,2-difluoroethoxy)phenyl)-6-oxopyridazin-1(6H)-yl)-N-ethylacetamide]
22 |  |  | < 10 µM | > 100 µM | O=C(Cn1nc(-c2ccc(OC(F)F)cc2)ccc1=O)NC1CCC1 [II-9, N-cyclobutyl-2-(3-(4-(difluoromethoxy)phenyl)-6-oxopyridazin-1(6H)-yl)acetamide]
23 |  |  | < 10 µM | > 100 µM | CCNC(=O)Cn1nc(-c2ccc(OC(F)F)cc2)ccc1=O [II-10, 2-(3-(4-(difluoromethoxy)phenyl)-6-oxopyridazin-1(6H)-yl)-N-ethylacetamide]
24 |  |  | 10 to 100 µM | > 100 µM | O=C(Cn1nc(-c2ccc(OC(F)F)cc2)ccc1=O)NCC(F)(F)F [II-11, 2-(3-(4-(difluoromethoxy)phenyl)-6-oxopyridazin-1(6H)-yl)-N-(2,2,2-trifluoroethyl) acetamide]
25 |  |  | 10 to 100 µM | > 100 µM | CCCNC(=O)Cn1nc(-c2ccc(OC(F)F)cc2)ccc1=O [II-12, 2-(3-(4-(difluoromethoxy)phenyl)-6-oxopyridazin-1(6H)-yl)-N-propylacetamide]
26 |  |  | 10 to 100 µM | > 100 µM | CC(C)CNC(=O)Cn1nc(-c2ccc(OC(F)F)cc2)ccc1=O [II-13, 2-(3-(4-(difluoromethoxy)phenyl)-6-oxopyridazin-1(6H)-yl)-N-isobutylacetamide]
27 |  |  | 10 to 100 µM | > 100 µM | CC(=O)Nc1ccc(-c2ccc(=O)n(CC(=O)NC(C)C)n2)cc1 [II-14, 2-(3-(4-acetamidophenyl)-6-oxopyridazin-1(6H)-yl)-N-isopropylacetamide]
28 |  |  | 10 to 100 µM | > 100 µM | O=C(Cn1nc(-c2ccc(OC(F)F)cc2)ccc1=O)NCC(F)F [II-15, N-(2,2-difluoroethyl)-2-(3-(4-(difluoromethoxy)phenyl)-6-oxopyridazin-1(6H)-yl)acetamide]
29 |  |  | 10 to 100 µM | > 100 µM | CC(C)(C)NC(=O)Cn1nc(-c2ccc(OC(F)F)cc2)ccc1=O [II-16, N-(tert-butyl)-2-(3-(4-(difluoromethoxy)phenyl)-6-oxopyridazin-1(6H)-yl)acetamide]
30 |  |  | 10 to 100 µM | > 100 µM | CCCCNC(=O)Cn1nc(-c2ccc(OC(F)F)cc2)ccc1=O [II-17, N-butyl-2-(3-(4-(difluoromethoxy)phenyl)-6-oxopyridazin-1(6H)-yl)acetamide]
31 |  |  | 10 to 100 µM | > 100 µM | O=C(Cn1nc(-c2ccc(OC(F)F)cc2)ccc1=O)NCC1CCC1 [II-18, N-(cyclobutylmethyl)-2-(3-(4-(difluoromethoxy)phenyl)-6-oxopyridazin-1(6H)-yl)acetamide]
32 |  |  | 10 to 100 µM | > 100 µM | CCNC(=O)Cn1nc(-c2ccc(OC(F)F)cc2)c(C)cc1=O [II-19, 2-(3-(4-(difluoromethoxy)phenyl)-4-methyl-6-oxopyridazin-1(6H)-yl)-N-ethylacetamide]
33 |  |  | > 100 µM | > 100 µM | O=C(Cn1nc(-c2ccc(OCC(F)(F)F)cc2)ccc1=O)NCc1ccc(O)nc1 [II-20, N-((6-hydroxypyridin-3-yl)methyl)-2-(6-oxo-3-(4-(2,2,2-trifluoroethoxy)phenyl)pyridazin-1(6H)-yl)acetamide]
34 |  |  | > 100 µM | > 100 µM | CCNC(=O)Cn1nc(-c2ccc(OC(F)F)cc2)cc(C)c1=O [II-21, 2-(3-(4-(difluoromethoxy)phenyl)-5-methyl-6-oxopyridazin-1(6H)-yl)-N-ethylacetamide]
35 |  |  | < 10 µM | > 100 µM | O=C(Cn1nc(-c2ccc(OCC(F)(F)F)cc2)ccc1=O)N1CC(c2ccccc2)C1 [II-22, 2-(2-oxo-2-(3-phenylazetidin-1-yl)ethyl)-6-(4-(2,2,2-trifluoroethoxy)phenyl)pyridazin-3(2H)-one]
36 |  |  | < 10 µM | > 100 µM | O=C(Cn1nc(-c2ccc(OCC(F)(F)F)cc2)ccc1=O)N1CCC1c1ccccc1 (centres unmarked) [II-23, 2-(2-oxo-2-(2-phenylazetidin-1-yl)ethyl)-6-(4-(2,2,2-trifluoroethoxy)phenyl)pyridazin-3(2H)-one]

Row | Compound | IC50 ([1]; Table 4A) | IC50 ([2]; Table 5A) | IC50 ([1]; Table 4B) | IC50 ([2]; Table 5B)
37 | CCNC(=O)Cn1nc(-c2ccc(OC3CC(F)(F)C3)nc2)ccc1=O [Compound I-75, 2-(3-(6-(3,3-difluorocyclobutoxy)pyridin-3-yl)-6-oxopyridazin-1(6H)-yl)-N-ethylacetamide] | 10 to 100 µM | > 100 µM |  | 
